In patent US9981930B1, “MAGL inhibitors” (ABIDE THERAPEUTICS, INC., priority 2016, dated 2018) one finds IC50 and inhibition data, which are given here for 7 compounds.

One test addresses T1, MAGL Human (Homo sapiens, UniProt Q99685).
T1 construct: Proteomes (human prefrontal cortex or cell membrane fractions); from tissue; host or cells: human prefrontal cortex or cell membrane fractions
T1 sequence (Q99685 1-303): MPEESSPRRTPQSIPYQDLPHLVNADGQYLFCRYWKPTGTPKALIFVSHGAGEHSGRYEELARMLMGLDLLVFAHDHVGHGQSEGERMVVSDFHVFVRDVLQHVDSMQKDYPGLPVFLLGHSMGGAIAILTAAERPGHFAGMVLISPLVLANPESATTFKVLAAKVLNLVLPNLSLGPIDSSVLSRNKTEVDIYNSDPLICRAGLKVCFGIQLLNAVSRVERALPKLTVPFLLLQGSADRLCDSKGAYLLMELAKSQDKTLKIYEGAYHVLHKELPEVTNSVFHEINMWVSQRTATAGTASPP
Nature of the test: In vitro competitive activity-based protein profiling (human). The class given is biochemical. As to conditions: human prefrontal cortex or cell membrane fractions; 30 min preincubation at 37° C.; FP-Rh or JW912 probe. How it is done:
In Vitro Competitive Activity-Based Protein Profiling (Human).
Proteomes (human prefrontal cortex or cell membrane fractions) (50 μL, 1.0-2.0 mg/mL total protein concentration) were preincubated with varying concentrations of inhibitors at 37° C. After 30 min, FP-Rh or JW912 (1.0 μL, 50 μM in DMSO) was added and the mixture was incubated for another 30 min at room temperature. Reactions were quenched with SDS loading buffer (15 μL-4×) and run on SDS-PAGE. Following gel imaging, serine hydrolase activity was determined by measuring fluorescent intensity of gel bands corresponding to MAGL using ImageJ 1.49k software.

The target in the next test is T2, MAGL (Mus musculus, UniProt O35678).
T2 construct: from tissue; host or cells: brain of wild-type C57Bl/6J mice
T2 sequence (O35678 1-303): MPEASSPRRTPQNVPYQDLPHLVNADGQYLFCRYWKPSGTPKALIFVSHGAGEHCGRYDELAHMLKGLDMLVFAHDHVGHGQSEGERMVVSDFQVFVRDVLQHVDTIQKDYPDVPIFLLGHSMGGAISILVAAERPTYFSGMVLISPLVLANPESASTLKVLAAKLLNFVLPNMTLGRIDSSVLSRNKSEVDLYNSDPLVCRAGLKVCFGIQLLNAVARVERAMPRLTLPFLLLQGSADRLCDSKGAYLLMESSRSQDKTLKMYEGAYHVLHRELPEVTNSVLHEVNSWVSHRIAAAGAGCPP
Nature of the test: Mouse brain proteomes from inhibitor treated mice (ex vivo activity-based protein profiling after oral gavage). In kind it is in vivo. As to conditions: 5 mg/kg oral gavage, C57Bl/6J mice, brain proteomes 4 h following administration. The procedure: Proteomes (mouse brain membrane fraction or cell lysates) (50 μL, 1.0 mg/mL total protein concentration) were preincubated with varying concentrations of inhibitors at 37° C. After 30 min, FP-Rh (1.0 μL, 50 μM in DMSO) was added and the mixture was incubated for another 30 min at 37° C. Reactions were quenched with SDS loading buffer (50 μL-4×) and run on SDS-PAGE. Following gel imaging, serine hydrolase activity was determined by measuring fluorescent intensity of gel bands corresponding to MAGL using ImageJ 1.49k software.
Preparation of Mouse Brain Proteomes from Inhibitor Treated Mice.

Take `O=C(O)CCNc1cc(Cl)ccc1CN1CCN(C(=O)OC(C(F)(F)F)C(F)(F)F)CC1` [Example 5, 3-((5-Chloro-2-((4-(((1,1,1,3,3,3-hexafluoropropan-2-yl)oxy)carbonyl)piperazin-1-yl)methyl)phenyl)amino)propanoic acid]: the IC50 at MAGL Human was less than 100 nM.

`O=C(O)CCCNc1cc(C(F)(F)F)ccc1CN1CCN(C(=O)OC(C(F)(F)F)C(F)(F)F)CC1` [Example 1, 4-((2-((4-(((1,1,1,3,3,3-Hexafluoropropan-2-yl)oxy)carbonyl)piperazin-1-yl)methyl)-5-(trifluoromethyl)phenyl)amino)butanoic acid] had a concentration for half-maximal inhibition (IC50) at MAGL Human of less than 100 nM. The compound also gave an inhibition at 5 mg/kg against MAGL of more than 75%. Regarding `O=C(O)CNc1cc(Cl)ccc1CN1CCN(C(=O)OC(C(F)(F)F)C(F)(F)F)CC1` [Example 3, (5-Chloro-2-((4-(((1,1,1,3,3,3-hexafluoropropan-2-yl)oxy)carbonyl)piperazin-1-yl)methyl)phenyl)glycine], the IC50 on MAGL Human is less than 100 nM. The compound further registered an inhibition at 5 mg/kg against MAGL of 25 to 75%. The like results for `C[C@H](Nc1cc(C(F)(F)F)ccc1CN1CCN(C(=O)OC(C(F)(F)F)C(F)(F)F)CC1)C(=O)O` [Example 7, (2-((4-(((1,1,1,3,3,3-hexafluoropropan-2-yl)oxy)carbonyl)piperazin-1-yl)methyl)-5-(trifluoromethyl)phenyl)-L-alanine] were, in that order, less than 100 nM and 25 to 75%. The like results for `O=C(O)CCCNc1cc(Cl)ccc1CN1CCN(C(=O)OC(C(F)(F)F)C(F)(F)F)CC1` [Example 2, 4-((5-Chloro-2-((4-(((1,1,1,3,3,3-hexafluoropropan-2-yl)oxy)carbonyl)piperazin-1-yl)methyl)phenyl)amino)butanoic acid] were, in that order, less than 100 nM and 25 to 75%. The like results for `O=C(O)CCNc1cc(C(F)(F)F)ccc1CN1CCN(C(=O)OC(C(F)(F)F)C(F)(F)F)CC1` [Example 4, 3-((2-((4-(((1,1,1,3,3,3-Hexafluoropropan-2-yl)oxy)carbonyl)piperazin-1-yl)methyl)-5-(trifluoromethyl)phenyl)amino)propanoic acid] were, in that order, less than 100 nM and more than 75%. Regarding `O=C(O)CNc1cc(C(F)(F)F)ccc1CN1CCN(C(=O)OC(C(F)(F)F)C(F)(F)F)CC1` [Example 6, (2-((4-(((1,1,1,3,3,3-Hexafluoropropan-2-yl)oxy)carbonyl)piperazin-1-yl)methyl)-5-(trifluoromethyl)phenyl)glycine], at MAGL Human, the IC50 was less than 100 nM.
